Legend:
[1] = Germicidal action and antibiotic-like action
melasma on human face = test: Action on the melanization in the human skin (melasma, ointment application); type: in vivo; conditions: 3 times a day, 3 months, 10 volunteers
Text: Action of 3-hydroxy-4(H)-pyran-4-one and acyl derivatives thereof on the melanization in the human skin.
The test substance was mixed and dissolved in a hydrophilic ointment according to the Japanese Pharmacopoeia and applied to a melasma on one side of each human face 3 times a day. In the control, only the hydrophilic ointment was applied to a melasma on the other side of the human face in the similar way.

Reducing action = type: physicochemical
tyrosinase [2] = test: Inhibitory action on tyrosinase activity (absorbance at 475 mμ with time); type: biochemical; conditions: 40 μg in 0.9 ml test solution, L-tyrosine, pH 6.8, 37° C., absorbance at 475 mμ with time (FIG. 1)
Method: To a test tube were added 0.9 ml of a test solution, containing 40 μg of pyranone described above, which solution was obtained by adding the pyranone to 30% aqueous solution of propylene glycol; 1 ml of L-tyrosine solution (0.3 mg/ml); and 1 ml McIlvaine's buffer solution (pH 6.8), and the mixture was incubated at 37° C. for 10 minutes. 0.1 ml of a tyrosinase solution (1 mg/ml) was then added to the incubated mixture and stirred thoroughly. The absorbance at 475 mμ of the mixture was immediately measured by a spectrophotometer with time. As a control, the absorbance at 475 mμ of a 30% aqueous solution of propylene glycol instead of the above test solution was measured with time.
FIG. 1 is a graph to illustrate the effect described above, and agreement of the line showing the absorbance in the case of 3-hydroxy-4(H)-pyran-4-one with the abscissa (time) of the graph clearly indicates the remarkable effect of the 3-hydroxy-4(H)-pyran-4-one.

[3] = system: triturated solution of a shaved skin of a rat; test: Enzymatic hydrolysis of acyl compounds by rat skin homogenate (ferric chloride coloring); type: in vitro ADME; design: key: +: light wine color; ++: deep wine color; +++: dark wine color; --: no coloration; ±: indistinct coloration; conditions: 0.05M substrate emulsion, 37° C., 1 hr
Method: (§1) (1) Substrate solution: A solution containing 2% polyvinyl alcohol in M/15 phosphate buffer solution (pH 7.0) was prepared. The respective acyl compounds were added to the solution in a concentration of 0.05M and homogenized in a homogenizer to give emulsions.
(§2) (2) Enzymatic solution: 30 mg of purified bacterial lipase was dissolved in 100 ml of water. As an organic crude enzymatic solution, there was used a triturated solution of a shaved skin and pancreas of a rat weighing about 200 g.
(§3) (3) The compositions were as follows:
(§4) The composition was incubated at 37° C. for 1 hr, and the reaction was stopped by 5% metaphosphoric acid. 0.5 ml of ferric chloride reagent (0.1% aqueous solution) was added to 5 ml of the supernatant liquid after the centrifugal precipitation to observe the coloring (wine color) thereof.

[4] = system: triturated solution of pancreas of a rat; test: Enzymatic hydrolysis of acyl compounds by rat pancreas homogenate (ferric chloride coloring); type: in vitro ADME; design: key: +: light wine color; ++: deep wine color; +++: dark wine color; --: no coloration; ±: indistinct coloration; conditions: 0.05M substrate emulsion, 37° C., 1 hr
Method: as §1, §2, §3, §4

[5] = system: purified bacterial lipase; test: Enzymatic hydrolysis of acyl compounds by purified bacterial lipase (ferric chloride coloring); type: in vitro ADME; design: key: +: light wine color; ++: deep wine color; +++: dark wine color; --: no coloration; ±: indistinct coloration; conditions: 0.05M substrate emulsion, 37° C., 1 hr
Method: as §1, §2, §3, §4

tyrosinase [6] = test: Inhibitory action of pretreated (hydrolyzed) 3-acyloxy-4(H)-pyran-4-one on tyrosinase activity; type: biochemical; conditions: 1.0% solution pretreated by hydrolysis at pH 11.0 or 2.0, 70° C., 30 minutes; L-tyrosine, pH 6.8, 37° C., absorbance at 475 mμ
Method: 3-Acetoxy-4(H)-pyran-4-one was dissolved in ethanol, and the solution was adjusted to pH 6.0 with succinic acid or potassium carbonate to give a 1.0% 3-acetoxy-4(H)-pyran-4-one solution.
As the pretreatment, two samples (each 10 ml) were taken from the solution. To the two samples were added 1% Na2 CO3 and 0.01% HCl to adjust the pH to 11.0 and 2.0, respectively. The adjusted samples were hydrolyzed by heating at 70° C. with stirring for 30 minutes.
To a test tube were added 1 ml of a L-tyrosine solution (0.3 mg/ml), 1 ml of McIlvaine's buffer solution (pH 6.8) and 0.9 ml of the 3-acetoxy-4(H)-pyran-4-one solution pretreated as described above. The mixture was incubated at 37° C. for 10 minutes, and 0.1 ml of a tyrosinase solution (1 mg/ml) was added thereto and stirred thoroughly. The absorbance at 475 mμ was immediately determined by a spectrophotometer with time. On the other hand, the absorbance of water was determined similarly with time as a control.

Structure (SMILES) | Mutagenicity (Mutagenicity) | Germicidal action and antibiotic-like action [1] | Results: Effective (number of volunteers) (melasma on human face; 0.5% in hydrophilic ointment) | Results: Ineffective (number of volunteers) (melasma on human face; 0.5% in hydrophilic ointment) | Results: Remarkably effective (number of volunteers) (melasma on human face; 0.5% in hydrophilic ointment) | Results: Effective (number of volunteers) (melasma on human face; 1% in hydrophilic ointment) | Results: Ineffective (number of volunteers) (melasma on human face; 1% in hydrophilic ointment) | Results: Remarkably effective (number of volunteers) (melasma on human face; 1% in hydrophilic ointment) | Reducing action (Reducing action) | Inhibitory action on tyrosinase activity (tyrosinase [2]) | Ratio of formation of 3-hydroxy-4(H)--pyran-4-one, Homogenate Rat's skin [3] | Results: Effective (number of volunteers) (melasma on human face; 2% in hydrophilic ointment) | Results: Ineffective (number of volunteers) (melasma on human face; 2% in hydrophilic ointment) | Results: Remarkably effective (number of volunteers) (melasma on human face; 2% in hydrophilic ointment) | Ratio of formation of 3-hydroxy-4(H)--pyran-4-one, Homogenate Rat's pancreas [4] | Ratio of formation of 3-hydroxy-4(H)--pyran-4-one, Bacterial lipase (purified) [5] | Inhibitory action on tyrosinase activity (tyrosinase [6])
O=c1ccocc1O [3-hydroxy-4(H)-pyran-4-one] | no mutagenicity | deficient in germicidal action and antibiotic-like action | 3 | 2 | 5 | 2 | 0 | 8 | weak reducing action | stronger inhibitory action on the tyrosinase activity than 3-hydroxy-chromone (chromonol) and kojic acid, and a far stronger inhibitory action than vitamin C |  |  |  |  |  |  | 
CCCCCCCCCCCCCCCC(=O)Oc1coccc1=O [3-palmitoyloxy-4(H)--pyran-4-one, 3-palmitoyloxy-4(H)-pyran-4-one] |  |  | 2 | 3 | 5 | 4 | 0 | 6 |  |  | ++ | 2 | 0 | 8 | ++ | ± | 
CC(=O)Oc1coccc1=O [3-acetoxy-4(H)-pyran-4-one, 3-Acetoxy-4(H)-pyran-4-one] |  |  |  |  |  |  |  |  |  |  | +++ |  |  |  | +++ | + | Results similar to those of the 3-hydroxy-4(H)-pyran-4-one

From patent US4545982A, “Pyranone compounds and skin-lightening cosmetic preparations or local demelanizing agents containing the same” (Yakurigaku Chuo Kenkyusho, priority 1982, dated 1985)
